# Calls of active or inactive are those of the source. No cut-off for these calls is given here.
# Legend:
# HaCaT [1] = assay: Anti-ferroptotic effect against erastin-induced cytotoxicity in human HaCaT cells assessed as cell viability at 10 uM preincubated for 4 hrs followed by erastin addition measured after 24 hrs by MTT assay (reference value: 23 %); format: functional; conditions: time 28 hrs, read-out: Activity
# HaCaT [2] = assay: Anti-ferroptotic effect against erastin-induced cytotoxicity in human HaCaT cells assessed as cell viability at 10 uM preincubated for 4 hrs followed by erastin addition measured after 24 hrs by MTT assay relative to control; format: functional; conditions: for Activity: time 28.0 hrs; for viability at 10 µM: time 28 hrs, read-out: Activity
# [3] = Antioxidant activity assessed as free radical scavenging activity at 100 uM incubated for 30 mins in dark by DPPH assay relative to control; format: functional
# [4] = Iron-chelating activity of compound at 500 uM incubated for 10 mins by absorbance based assay relative to control; format: functional
# [5] = Antioxidant activity assessed as free radical scavenging activity incubated for 30 mins in dark by DPPH assay; format: functional
# HaCaT [6] = assay: Suppression of erastin-induced intracellular Fe2+ level in human HaCaT cells at 0.6 uM preincubated for 24 hrs followed by erastin addition measured after 24 hrs by FerroOrange probe based assay (reference value: 25 %); format: functional; conditions: time 48 hrs
# HaCaT [7] = assay: Anti-ferroptotic effect against erastin-induced cytotoxicity in human HaCaT cells assessed as cell viability at 1.25 uM preincubated for 4 hrs followed by erastin addition measured after 24 hrs by MTT assay (reference value: 23 %); format: functional; conditions: time 28 hrs, read-out: Activity
# HaCaT [8] = assay: Anti-ferroptotic effect against erastin-induced cytotoxicity in human HaCaT cells assessed as cell viability at 0.16 uM preincubated for 4 hrs followed by erastin addition measured after 24 hrs by MTT assay (reference value: 23 %); format: functional; conditions: time 28 hrs, read-out: Activity
# HaCaT [9] = assay: Reversal of erastin-induced iron level in human HaCaT cells at 2.5 uM preincubated for 24 hrs followed by erastin addition measured after 24 hrs by FerroOrange probe based assay (reference value: 43 %); format: functional; conditions: time 48 hrs
# HaCaT [10] = assay: Anti-ferroptotic effect against erastin-induced cytotoxicity in human HaCaT cells assessed as cell viability at 0.08 uM preincubated for 4 hrs followed by erastin addition measured after 24 hrs by MTT assay (reference value: 23 %); format: functional; conditions: time 28 hrs, read-out: Activity
# HaCaT [11] = assay: Reversal of erastin-induced iron level in human HaCaT cells at 10 uM preincubated for 24 hrs followed by erastin addition measured after 24 hrs by FerroOrange probe based assay (reference value: 43 %); format: functional; conditions: time 48 hrs
# HaCaT [12] = assay: Effect on GSH level in human HaCaT cells at 2.5 uM; format: functional, cell-based
# HaCaT [13] = assay: Suppression of erastin-induced intracellular Fe2+ level in human HaCaT cells at 2.5 uM preincubated for 24 hrs followed by erastin addition measured after 24 hrs by FerroOrange probe based assay (reference value: 25 %); format: functional; conditions: time 48 hrs
# HaCaT [14] = assay: Reversal of erastin-reduced RPL7A level in human HaCaT cells; format: functional, cell-based
# HaCaT [15] = assay: Reversal of erastin-induced ROS level in human HaCaT cells at 0.6 uM preincubated for 24.5 hrs followed by erastin addition measured after 4 hrs by DC-FDA probe based assay (reference value: 23 %); format: functional; conditions: time 28.5 hrs
# HaCaT [16] = assay: Reversal of erastin-induced lipid peroxidation in human HaCaT cells at 10 uM preincubated for 4 hrs followed by erastin addition measured after 24 hrs by flow cytometry (reference value: 47 %); format: functional; conditions: time 28 hrs
# HaCaT [17] = assay: Reversal of erastin-induced ROS level in human HaCaT cells at 10 uM preincubated for 24.5 hrs followed by erastin addition measured after 4 hrs by DC-FDA probe based assay (reference value: 23 %); format: functional; conditions: time 28.5 hrs
# HaCaT [18] = assay: Anti-ferroptotic effect against erastin-induced cytotoxicity in human HaCaT cells assessed as cell viability at 2.5 uM preincubated for 4 hrs followed by erastin addition measured after 24 hrs by MTT assay (reference value: 23 %); format: functional; conditions: time 28 hrs, read-out: Activity
# HaCaT [19] = assay: Reversal of erastin-induced lipid peroxidation in human HaCaT cells at 0.6 uM preincubated for 4 hrs followed by erastin addition measured after 24 hrs by flow cytometry (reference value: 47 %); format: functional; conditions: time 28 hrs
# HaCaT [20] = assay: Anti-ferroptotic effect against erastin-induced cytotoxicity in human HaCaT cells assessed as cell viability at 5 uM preincubated for 4 hrs followed by erastin addition measured after 24 hrs by MTT assay (reference value: 23 %); format: functional; conditions: time 28 hrs, read-out: Activity
# HaCaT [21] = assay: Anti-ferroptotic effect against erastin-induced cytotoxicity in human HaCaT cells assessed as cell viability at 0.63 uM preincubated for 4 hrs followed by erastin addition measured after 24 hrs by MTT assay (reference value: 23 %); format: functional; conditions: time 28 hrs, read-out: Activity
# HaCaT [22] = assay: Reversal of erastin-induced LIG3 level in human HaCaT cells; format: functional, cell-based
# HaCaT [23] = assay: Anti-ferroptotic effect against erastin-induced cytotoxicity in human HaCaT cells assessed as cell viability at 0.31 uM preincubated for 4 hrs followed by erastin addition measured after 24 hrs by MTT assay (reference value: 23 %); format: functional; conditions: time 28 hrs, read-out: Activity
# HaCaT [24] = assay: Reversal of erastin-induced FXR2 level in human HaCaT cells; format: functional, cell-based
# HaCaT [25] = assay: Reversal of erastin-induced ROS level in human HaCaT cells at 2.5 uM preincubated for 24.5 hrs followed by erastin addition measured after 4 hrs by DC-FDA probe based assay (reference value: 23 %); format: functional; conditions: time 28.5 hrs
# HaCaT [26] = assay: Reversal of erastin-induced DDX60 level in human HaCaT cells; format: functional, cell-based
# HaCaT [27] = assay: Reversal of erastin-reduced LGALS3 level in human HaCaT cells; format: functional, cell-based
# HaCaT [28] = assay: Reversal of erastin-induced lipid peroxidation in human HaCaT cells at 2.5 uM preincubated for 4 hrs followed by erastin addition measured after 24 hrs by flow cytometry (reference value: 47 %); format: functional; conditions: time 28 hrs
# HaCaT [29] = assay: Reversal of erastin-reduced CSNK2B level in human HaCaT cells; format: functional, cell-based
# HaCaT [30] = assay: Suppression of erastin-induced intracellular Fe2+ level in human HaCaT cells at 10 uM preincubated for 24 hrs followed by erastin addition measured after 24 hrs by FerroOrange probe based assay (reference value: 25 %); format: functional; conditions: time 48 hrs
compound,measurement,setting,value
CCOC(=O)c1ccc(NC2CCCCC2)c(N)c1,viability at 10 µM,HaCaT [1],66%
CC1=C(/C=C/C(C)=C/C=C/C(C)=C/CO)C(C)(C)CCC1,Activity,HaCaT [2],inactive
same,Activity,[3],18%
same,Activity,[4],87%
O=C1O[C@H]([C@@H](O)CO)C(O)=C1O [ASCORBIC ACID],Activity,HaCaT [2],inactive
same,Activity,[4],< 5%
same,IC50,[5],15.9 µM
C=C(C)[C@@H]1CCC(C)=C[C@H]1c1c(O)cc(CCCCC)cc1O [CANNABIDIOL],Activity,HaCaT [6],10%
same,viability at 1.25 µM,HaCaT [7],67%
same,viability at 0.16 µM,HaCaT [8],36%
same,Activity,HaCaT [9],15%
same,viability at 0.08 µM,HaCaT [10],29%
same,Activity,HaCaT [11],17%
same,Activity,HaCaT [12],inactive
same,Activity,HaCaT [13],12%
same,Activity,HaCaT [14],Active
same,viability at 10 µM,HaCaT [2],76%
same,Activity,HaCaT [15],10%
same,Activity,HaCaT [16],40%
same,Activity,HaCaT [17],26%
same,viability at 2.5 µM,HaCaT [18],74%
same,Activity,HaCaT [19],39%
same,viability at 5 µM,HaCaT [20],71%
same,viability at 0.63 µM,HaCaT [21],52%
same,Activity,HaCaT [22],Active
same,Activity,[4],< 5%
same,viability at 0.31 µM,HaCaT [23],45%
same,Activity,HaCaT [24],Active
same,Activity,HaCaT [25],14%
same,viability at 10 µM,HaCaT [1],68%
same,Activity,HaCaT [26],Active
same,Activity,HaCaT [27],Active
same,Activity,HaCaT [28],44%
same,IC50,[5],33.3 µM
same,Activity,HaCaT [29],Active
O=c1c(O)c(-c2ccc(O)c(O)c2)oc2cc(O)ccc12 [FISETIN],Activity,HaCaT [11],14%
same,Activity,HaCaT [30],32%
same,viability at 10 µM,HaCaT [2],37%
same,Activity,HaCaT [16],40%
same,Activity,HaCaT [17],11%
same,Activity,[4],60%
same,IC50,[5],10.1 µM
